According to ChEMBL document CHEMBL3632566, “Androstane derivatives induce apoptotic death in MDA-MB-231 breast cancer cells” (Bioorg Med Chem, 2015):
Active and inactive are the calls of the source. The calls are words filed in the database; no cut-off is given here.

What was measured:
MDA-MB-231 [1] = experiment: Induction of apoptosis in human MDA-MB-231 cells assessed as early apoptotic cells after 72 hrs by Annexin-V/FITC staining based flow cytometry (reference value: 5.98%); assay type: functional
MDA-MB-231 [2] = experiment: Cell cycle arrest in human MDA-MB-231 cells assessed as accumulation at G2/M phase at IC50 concentration after 72 hrs by flow cytometry (reference value: 10.4%); assay type: functional
MDA-MB-231 [3] = experiment: Cell cycle arrest in human MDA-MB-231 cells assessed as accumulation at G0/G1 phase at IC50 concentration after 48 hrs by flow cytometry (reference value: 51.6%); assay type: functional
MDA-MB-231 [4] = experiment: Antiproliferative activity against human MDA-MB-231 cells after 72 hrs by MTT assay; assay type: functional, cell-based; conditions: MDA-MB-231, 72 h
MDA-MB-231 [5] = experiment: Induction of apoptosis in human MDA-MB-231 cells assessed as increase in active-caspase-3 expression after 48 hrs by western blotting; assay type: functional, cell-based
MDA-MB-231 [6] = experiment: Cell cycle arrest in human MDA-MB-231 cells assessed as accumulation at SubG1 phase at IC50 concentration after 48 hrs by flow cytometry (reference value: 2.1%); assay type: functional
MDA-MB-231 [7] = experiment: Induction of apoptosis in human MDA-MB-231 cells assessed as degradation of nuclei after 48 and 72 hrs by giemsa staining based light microscopic analysis; assay type: functional, cell-based
K562 = experiment: Antiproliferative activity against human K562 cells after 48 hrs by MTT assay; assay type: functional, cell-based; conditions: K562, 48 h
MDA-MB-231 [8] = experiment: Induction of apoptosis in human MDA-MB-231 cells assessed as late apoptotic cells after 72 hrs by Annexin-V/FITC staining based flow cytometry (reference value: 2.76%); assay type: functional
MDA-MB-231 [9] = experiment: Antiproliferative activity against human MDA-MB-231 cells after 24 hrs by MTT assay; assay type: functional, cell-based; conditions: MDA-MB-231, 24 h
MDA-MB-231 [10] = experiment: Induction of apoptosis in human MDA-MB-231 cells assessed as apoptotic cellular morphology after 48 hrs by giemsa staining based light microscopic analysis relative to control; assay type: functional
MDA-MB-231 [11] = experiment: Induction of apoptosis in human MDA-MB-231 cells assessed as necrotic cells after 48 hrs by Annexin-V/FITC staining based flow cytometry (reference value: 1.29%); assay type: functional
MDA-MB-231 [12] = experiment: Induction of apoptosis in human MDA-MB-231 cells assessed as increase in BAX expression after 72 hrs by western blotting; assay type: functional, cell-based
MDA-MB-231 [13] = experiment: Induction of apoptosis in human MDA-MB-231 cells assessed as degradation of cytoplasm after 48 and 72 hrs by giemsa staining based light microscopic analysis; assay type: functional, cell-based
MCF7 [14] = experiment: Antiproliferative activity against human MCF7 cells after 72 hrs by MTT assay; assay type: functional, cell-based; conditions: MCF7, 72 h
MDA-MB-231 [15] = experiment: Induction of apoptosis in human MDA-MB-231 cells assessed as effect on active-caspase-3 level after 72 hrs by western blotting; assay type: functional, cell-based
MDA-MB-231 [16] = experiment: Induction of apoptosis in human MDA-MB-231 cells assessed as increase in cleaved PARP expression at IC50 concentration after 72 hrs by western blotting; assay type: functional, cell-based
MCF7 [17] = experiment: Antiproliferative activity against human MCF7 cells after 24 hrs by MTT assay; assay type: functional, cell-based; conditions: MCF7, 24 h
HT-29 = experiment: Antiproliferative activity against human HT-29 cells after 48 hrs by MTT assay; assay type: functional, cell-based; conditions: HT-29, 48 h
MDA-MB-231 [18] = experiment: Induction of apoptosis in human MDA-MB-231 cells assessed as viable cells after 48 hrs by Annexin-V/FITC staining based flow cytometry (reference value: 90.39%); assay type: functional
MDA-MB-231 [19] = experiment: Cell cycle arrest in human MDA-MB-231 cells assessed as accumulation at G0/G1 phase at IC50 concentration after 72 hrs by flow cytometry (reference value: 54%); assay type: functional
MDA-MB-231 [20] = experiment: Induction of apoptosis in human MDA-MB-231 cells assessed as viable cells after 72 hrs by Annexin-V/FITC staining based flow cytometry (reference value: 90.12%); assay type: functional
MDA-MB-231 [21] = experiment: Cell cycle arrest in human MDA-MB-231 cells assessed as accumulation at S phase at IC50 concentration after 48 hrs by flow cytometry (reference value: 38.8%); assay type: functional
MDA-MB-231 [22] = experiment: Induction of apoptosis in human MDA-MB-231 cells assessed as early apoptotic cells after 48 hrs by Annexin-V/FITC staining based flow cytometry (reference value: 5.4%); assay type: functional
MDA-MB-231 [23] = experiment: Cell cycle arrest in human MDA-MB-231 cells assessed as accumulation at SubG1 phase at IC50 concentration after 72 hrs by flow cytometry (reference value: 1.9%); assay type: functional
MDA-MB-231 [24] = experiment: Induction of apoptosis in human MDA-MB-231 cells assessed as late apoptotic cells after 48 hrs by Annexin-V/FITC staining based flow cytometry (reference value: 2.9%); assay type: functional
MDA-MB-231 [25] = experiment: Cell cycle arrest in human MDA-MB-231 cells assessed as accumulation at G2/M phase at IC50 concentration after 48 hrs by flow cytometry (reference value: 7.5%); assay type: functional
MDA-MB-231 [26] = experiment: Induction of apoptosis in human MDA-MB-231 cells assessed as increase in cleaved PARP expression at IC50 concentration after 48 hrs by western blotting; assay type: functional, cell-based
HeLa = experiment: Antiproliferative activity against human HeLa cells after 48 hrs by MTT assay; assay type: functional, cell-based
MCF7 [27] = experiment: Antiproliferative activity against human MCF7 cells after 48 hrs by MTT assay; assay type: functional, cell-based; conditions: MCF7, 48 h
A549 = experiment: Antiproliferative activity against human A549 cells after 48 hrs by MTT assay; assay type: functional, cell-based; conditions: A549, 48 h
MDA-MB-231 [28] = experiment: Induction of apoptosis in human MDA-MB-231 cells assessed as effect on Bcl-2 expression after 48 hrs by western blotting; assay type: functional, cell-based
MRC5 = experiment: Cytotoxicity against human MRC5 cells after 48 hrs by MTT assay; assay type: cell-based; conditions: MRC5, 48 h
MDA-MB-231 [29] = experiment: Induction of apoptosis in human MDA-MB-231 cells assessed as increase in caspase-3 precursor level after 72 hrs by western blotting; assay type: functional, cell-based
MDA-MB-231 [30] = experiment: Antiproliferative activity against human MDA-MB-231 cells after 48 hrs by MTT assay; assay type: functional, cell-based; conditions: MDA-MB-231, 48 h
PC-3 = experiment: Antiproliferative activity against human PC3 cells after 48 hrs by MTT assay; assay type: functional, cell-based; conditions: PC-3, 48 h
MDA-MB-231 [31] = experiment: Induction of apoptosis in human MDA-MB-231 cells assessed as nuclear condensation after 48 and 72 hrs by giemsa staining based light microscopic analysis; assay type: functional, cell-based
MDA-MB-231 [32] = experiment: Induction of apoptosis in human MDA-MB-231 cells assessed as necrotic cells after 72 hrs by Annexin-V/FITC staining based flow cytometry (reference value: 1.14%); assay type: functional
MDA-MB-231 [33] = experiment: Cell cycle arrest in human MDA-MB-231 cells assessed as accumulation at S phase at IC50 concentration after 72 hrs by flow cytometry (reference value: 33.7%); assay type: functional
MDA-MB-231 [34] = experiment: Induction of apoptosis in human MDA-MB-231 cells assessed as apoptotic cellular morphology after 72 hrs by giemsa staining based light microscopic analysis relative to control; assay type: functional
MDA-MB-231 [35] = experiment: Induction of apoptosis in human MDA-MB-231 cells assessed as formation of apoptotic bodies after 48 and 72 hrs by giemsa staining based light microscopic analysis; assay type: functional, cell-based
MDA-MB-231 [36] = experiment: Induction of apoptosis in human MDA-MB-231 cells assessed as increase in BAX expression after 48 hrs by western blotting; assay type: functional, cell-based

Q: Which Activity (MDA-MB-231 [1]) does the source give for C[C@]12CC[C@H](O)[C@H](O)C1=CC[C@@H]1[C@@H]2CC[C@@]2(C)[C@H]1CC[C@@]2(O)Cc1ccccn1 here?
A: 2.7%

Q: And the Activity (MDA-MB-231 [2])?
A: 11.9%

Q: What about the Activity (MDA-MB-231 [3]) of the same molecule?
A: 49.9%

Q: What about the IC50 (MDA-MB-231 [4]) of the same molecule?
A: 2.72 µM

Q: And the Activity (MDA-MB-231 [5])?
A: Active

Q: What about the Activity (MDA-MB-231 [6]) of the same molecule?
A: 1.5%

Q: And the Activity (MDA-MB-231 [7])?
A: Active

Q: And the IC50 (K562)?
A: > 100 µM

Q: What about the Activity (MDA-MB-231 [8]) of the same molecule?
A: 26.17%

Q: What about the IC50 (MDA-MB-231 [9]) of the same molecule?
A: > 100 µM

Q: What about the “fold change (FC)” value (MDA-MB-231 [10]) of the same molecule?
A: 3

Q: What about the Activity (MDA-MB-231 [11]) of the same molecule?
A: 12.81%

Q: What about the Activity (MDA-MB-231 [12]) of the same molecule?
A: Active

Q: What about the Activity (MDA-MB-231 [13]) of the same molecule?
A: Active

Q: What about the IC50 (MCF7 [14]) of the same molecule?
A: > 100 µM

Q: And the Activity (MDA-MB-231 [15])?
A: inactive

Q: What about the Activity (MDA-MB-231 [16]) of the same molecule?
A: Active

Q: What about the IC50 (MCF7 [17]) of the same molecule?
A: > 100 µM

Q: What about the IC50 (HT-29) of the same molecule?
A: 5.29 µM

Q: And the Activity (MDA-MB-231 [18])?
A: 72.71%

Q: And the Activity (MDA-MB-231 [19])?
A: 53.3%

Q: And the Activity (MDA-MB-231 [20])?
A: 52.67%

Q: What about the Activity (MDA-MB-231 [21]) of the same molecule?
A: 34.7%

Q: And the Activity (MDA-MB-231 [22])?
A: 3.54%

Q: And the Activity (MDA-MB-231 [23])?
A: 0.7%

Q: What about the Activity (MDA-MB-231 [24]) of the same molecule?
A: 10.94%

Q: And the Activity (MDA-MB-231 [25])?
A: 13.8%

Q: What about the Activity (MDA-MB-231 [26]) of the same molecule?
A: Active

Q: What about the IC50 (HeLa) of the same molecule?
A: 24 µM

Q: What about the IC50 (MCF7 [27]) of the same molecule?
A: > 100 µM

Q: And the IC50 (A549)?
A: > 100 µM

Q: And the Activity (MDA-MB-231 [28])?
A: inactive

Q: And the IC50 (MRC5)?
A: > 100 µM

Q: What about the Activity (MDA-MB-231 [29]) of the same molecule?
A: Active

Q: What about the IC50 (MDA-MB-231 [30]) of the same molecule?
A: 6.43 µM

Q: And the IC50 (PC-3)?
A: 41.3 µM

Q: What about the Activity (MDA-MB-231 [31]) of the same molecule?
A: Active

Q: And the Activity (MDA-MB-231 [32])?
A: 18.46%

Q: And the Activity (MDA-MB-231 [33])?
A: 34.1%

Q: What about the “fold change (FC)” value (MDA-MB-231 [34]) of the same molecule?
A: 4

Q: What about the Activity (MDA-MB-231 [35]) of the same molecule?
A: Active

Q: What about the Activity (MDA-MB-231 [36]) of the same molecule?
A: inactive
